Measured values as given in patent publication US20100056601A1, “Control agent containing N-Substituted indole derivative for acarian parasitic on animal” (Nippon Kayaku Kabushiki Kaisha, priority 2004, published 2010).
Where two headings read alike, the source gives them in different places.

Columns and labels:
[1] = tested on: hatched larvae of Haemaphysalis longicornis; assay: In vitro control effect on acarians, treated Pasteur's pipette test (Test Example 1); type: in vivo
Procedure: Neoglamine was added to the emulsion of Example 1 in an amount of 0.01% and the resulting mixture was diluted with tap water to each concentration shown in Table 2. After a commercial 0.5×15 cm Pasteur's pipette was immersed in the dilution for 30 seconds, it was vertically stood on cotton and air-dried. The head of the air-dried Pasteur's pipette was plugged with cotton, and 10 hatched larvae of Haemaphysalis longicornis were sucked from the cotton-plugged end side by the use of a suction pump and then the other end was sealed with putty. After the suction, the pipette was allowed to stand in a desiccator containing a saturated aqueous disodium hydrogenphosphate solution and maintained at 23° C. Observation was carried out after 2 days and after 4 days. Fipronil was used as a positive control.

[2] = tested on: hatched larvae of Haemaphysalis longicornis; assay: In vivo control effect on ticks on rabbit ears, spot-on treatment (Test Example 2)
Procedure: About 40 hatched larvae of Haemaphysalis longicornis were inoculated on the ears of a rabbit by the use of a cloth bag, made parasitic on the rabbit and allowed to suck the blood. After 24 hours, the cloth bag was taken off and ticks sucking the blood were counted. […] The left ear was not treated. Three hours, 1 day and 2 days after the spot-on treatment, the living ticks on each of the right and left ears were counted. As a control animal, there was used a rabbit whose right ear had been treated with only the base ingredient for preparation for spot-on treatment and whose left ear had been not treated.

std:ddy strain male mice = assay: Toxicity to mouse, administration into the stomach (Test Example 3); type: in vivo; conditions: into the stomach in olive oil
Procedure: The compound listed in Table 1 or Fipronil was dissolved in olive oil to a predetermined concentration, and the resulting solution was directly administered into the stomachs of std:ddy strain male mice by the use of a probe. The dose was 30 mg/kg or 100 mg/kg. Whether the mice were alive or dead was observed 3 hours, 1 day, 7 days and 14 days after the administration.

[3] = tested on: two-spotted spider mite (Tetranychus urticae); assay: Comparative test: insecticidal effect on two-spotted spider mite, leaf immersion (Test Example 5); type: in vivo; conditions: for insecticidal activity against the two-spotted spider mites (in words): 200 ppm, 2 days after immersion; for mortality at 200 ppm: Tetranychus urticae, in Phaseolus vulgaris, 48 h, read-out: Mortality after 2 days (%)
Procedure: Twenty adult female two-spotted spider mites were released on the leaves of a potted kidney bean plant. One day after the release, the kidney bean leaves were immersed for several seconds in a chemical solution obtained by diluting a 20% emulsion of each compound with tap water to a concentration of 200 ppm. After air-dryness, the leaves were placed in a room thermostated at 25° C. Two days after the immersion, whether the adult two-spotted spider mites on the leaves were alive or dead were judged and the dead and alive were counted. The mortality was calculated.

cat = assay: Administration to a cat, spot-on dropping, clinical symptom (Test Example 4); conditions: for Clinical symptom: 0.5 ml spot-on
Source text: After the dropping, the clinical symptom of the cat was observed.

[4] = Haemaphysalis longicornis, 48 h, read-out: Mortality after 2 days
[5] = Haemaphysalis longicornis, 96 h, read-out: Mortality after 4 days
[6] = left ear (not treated), right ear spot-on 0.1 ml of 20% solution
[7] = right ear (treated), spot-on 0.1 ml of 20% solution

| Structure (SMILES) | mortality at 0.1 ppm [1, 4] [%] | mortality at 1 ppm [1, 4] [%] | mortality at 10 ppm [1, 4] [%] | mortality at 1 ppm [1, 5] [%] | mortality at 10 ppm [1, 5] [%] | Cumulative mortality after 3 hours (std:ddy strain male mice; 30 mg/kg) | Cumulative mortality after 1 day (std:ddy strain male mice; 30 mg/kg) | Cumulative mortality after 7 days (std:ddy strain male mice; 30 mg/kg) | Cumulative mortality after 14 days (std:ddy strain male mice; 30 mg/kg) | Cumulative mortality after 3 hours (std:ddy strain male mice; 100 mg/kg) | Cumulative mortality after 1 day (std:ddy strain male mice; 100 mg/kg) | Cumulative mortality after 7 days (std:ddy strain male mice; 100 mg/kg) | Cumulative mortality after 14 days (std:ddy strain male mice; 100 mg/kg) | insecticidal activity against the two-spotted spider mites (in words) [3] | mortality at 200 ppm [3] [%] | other results |
| --- | --- | --- | --- | --- | --- | --- | --- | --- | --- | --- | --- | --- | --- | --- | --- | --- |
| FC(Cl)(Cl)Sc1cn(-c2c(Cl)cc(C(F)(F)F)cc2Cl)c2ccccc12 [Compound 17, 1-(2,6-dichloro-4-trifluoromethylphenyl)-3-(dichlorofluoromethylthio)indole] | 0 | 20 | 100 | 80 | 100 | 0/5 | 0/5 | 0/5 | 0/5 | 0/5 | 0/5 | 0/5 | 0/5 | no insecticidal activity | 0 | mortality at 0.1 ppm [1, 5]: 0%; extermination of ticks on the treated right ear (in words) ([2]; in 3 hours after the treatment): quickly exterminated ticks on the right ear; extermination of ticks on the untreated left ear (in words) ([2]; in 1 day after the treatment): also exterminated ticks on the left ear; Number of living ticks, before dropping ([2]; left ear (not treated), baseline before spot-on on right ear): 15; Number of living ticks, after 3 hours [2, 6]: 15; Number of living ticks, after 1 day [2, 6]: 0; Number of living ticks, after 2 days [2, 6]: 0; Number of living ticks, before dropping ([2]; right ear (treated ear), baseline before spot-on of 0.1 ml 20% solution): 15; Number of living ticks, after 3 hours [2, 7]: 3; Number of living ticks, after 1 day [2, 7]: 1; Number of living ticks, after 2 days [2, 7]: 0; Clinical symptom (cat; cat, dropping concentration 10%): No sign was recognized; Clinical symptom (cat; cat, dropping concentration 20%): No sign was recognized; Clinical symptom (cat; cat, dropping concentration 30%): No sign was recognized; abnormal sign due to the spot-on dropping (cat; cat, 10, 20 or 30% liquid drops): no abnormal sign; toxicity to cat (in words) (cat; cat, spot-on 10, 20 or 30% liquid drops): only low toxicity |
| FC(F)(F)Sc1cn(-c2c(Cl)cc(C(F)(F)F)cc2Cl)c2ccccc12 [Compound 25, 1-(2,6-dichloro-4-trifluoromethylphenyl)-3-(trifluoromethylthio)indole] | 100 | 100 | 100 | 100 | 100 | 0/5 | 0/5 | 0/5 | 0/5 | 0/5 | 0/5 | 0/5 | 0/5 | no insecticidal activity | 0 | mortality at 0.01 ppm [1, 4]: 30%; mortality at 0.01 ppm [1, 5]: 60% |
| N#Cc1nn(-c2c(Cl)cc(C(F)(F)F)cc2Cl)c(N)c1[S+]([O-])C(F)(F)F (centres unmarked) [Fipronil, 5-amino-1-(2,6-dichloro-4-(trifluoromethyl)phenyl)-4-((trifluoromethyl)sulfinyl)-1H-pyrazole-3-carbonitrile, reference compound] |  |  |  |  |  | 0/5 | 1/5 | 1/5 | 1/5 | 1/5 | 5/5 | 5/5 | 5/5 |  |  | mortality at 0.1 ppm ([1]; 48 h, 0.1 ppm, Haemaphysalis longicornis larvae, 23° C., read-out: Mortality after 2 days): 30%; mortality at 1 ppm ([1]; 48 h, 1 ppm, Haemaphysalis longicornis larvae, 23° C., read-out: Mortality after 2 days): 100%; mortality at 10 ppm ([1]; 48 h, 10 ppm, Haemaphysalis longicornis larvae, 23° C., read-out: Mortality after 2 days): 100%; mortality at 0.1 ppm ([1]; 96 h, 0.1 ppm, Haemaphysalis longicornis larvae, 23° C., read-out: Mortality after 4 days): 60%; mortality at 1 ppm ([1]; 96 h, 1 ppm, Haemaphysalis longicornis larvae, 23° C., read-out: Mortality after 4 days): 100%; mortality at 10 ppm ([1]; 96 h, 10 ppm, Haemaphysalis longicornis larvae, 23° C., read-out: Mortality after 4 days): 100% |
